Calls of active or inactive are those of the source.
Key:
Assay type in all cases: functional, organism-based
[1] = tested on: Escherichia coli; test: Antibacterial activity against Escherichia coli at 50 ug by agar diffusion method
[2] = tested on: Staphylococcus aureus; test: Antibacterial activity against Staphylococcus aureus at 50 ug by agar diffusion method
[3] = tested on: Pseudomonas aeruginosa; test: Antibacterial activity against Pseudomonas aeruginosa at 50 ug by agar diffusion method
[4] = tested on: Mycolicibacterium smegmatis; test: Antibacterial activity against Mycobacterium smegmatis at 50 ug by agar diffusion method
[5] = tested on: Enterococcus faecalis; test: Antibacterial activity against Enterococcus faecalis at 50 ug by agar diffusion method

Measured: Activity

CC1(C)CC[C@]2(C(=O)O)CC[C@]3(C)C(=CC[C@@H]4[C@@]5(C)C[C@H](O)[C@H](O[C@@H]6O[C@H](CO)[C@@H](O)[C@H](O[C@@H]7O[C@H](CO)[C@H](O)[C@H](O)[C@H]7O)[C@H]6O)[C@@](C)(CO)[C@@H]5CC[C@]43C)[C@@H]2C1
inactive: all assays above

CC1(C)CC[C@]2(C(=O)O[C@@H]3O[C@H](CO)[C@@H](O)[C@H](O)[C@H]3O)CC[C@]3(C)C(=CC[C@@H]4[C@@]5(C)C[C@H](O)[C@H](O[C@@H]6O[C@H](C(=O)O)[C@@H](O)[C@H](O[C@@H]7O[C@H](CO)[C@H](O[C@@H]8O[C@H](CO)[C@H](O)[C@H](O[C@@H]9O[C@H](CO)[C@H](O)[C@H](O[C@@H]%10OC[C@@H](O)[C@H](O)[C@H]%10O)[C@H]9O)[C@H]8O)[C@H](O)[C@H]7O)[C@H]6O)C(C)(C)[C@@H]5CC[C@]43C)[C@@H]2C1
inactive: all assays above

CC1(C)CC[C@]2(C(=O)O)CC[C@]3(C)C(=CC[C@@H]4[C@@]5(C)CC[C@H](O[C@@H]6O[C@H](CO)[C@@H](O)[C@H](O[C@@H]7O[C@H](CO)[C@H](O)[C@H](O)[C@H]7O)[C@H]6O)[C@@](C)(CO)[C@@H]5CC[C@]43C)[C@@H]2C1
inactive: all assays above

CC1(C)CC[C@]2(C(=O)O[C@@H]3O[C@H](CO)[C@@H](O)[C@H](O)[C@H]3O)CC[C@]3(C)C(=CC[C@@H]4[C@@]5(C)C[C@H](O)[C@H](O[C@@H]6O[C@H](C(=O)O)[C@@H](O)[C@H](O[C@@H]7O[C@H](CO)[C@H](O)[C@H](O)[C@H]7O)[C@H]6O)C(C)(C)[C@@H]5CC[C@]43C)[C@@H]2C1
inactive: all assays above

CC1(C)CC[C@]2(C(=O)O[C@@H]3O[C@H](CO)[C@@H](O)[C@H](O)[C@H]3O)CC[C@]3(C)C(=CC[C@@H]4[C@@]5(C)CC[C@H](O[C@@H]6O[C@H](CO)[C@H](O)[C@H](O)[C@H]6O[C@@H]6O[C@H](CO)[C@@H](O)[C@H](O)[C@H]6O)[C@@](C)(CO)[C@@H]5CC[C@]43C)[C@@H]2C1
inactive: all assays above
